Test results taken from publication PMC3677765 (Forensic science international, 2012).

Key:
[1] = next specimen collected 18 h later (after the 6 h sample); cited from earlier work
[2] = positive samples among 80 subjects (JWH-018 in 9, JWH-073 in 6); cited from earlier work
[3] = Blood concentrations in mice after inhalation of "Magic Gold" smoke; format: in vivo, C57BL6 mice
[4] = Post-preparative; format: physicochemical; details: extracted samples stored in the auto-sampler 72 h at room temperature
[5] = Brain concentrations in mice after inhalation of "Magic Gold" smoke; format: in vivo, C57BL6 mice

| SMILES | Serum detection [1] | Serum concentration (mean) [2] [ng/mL] | JWH-073 blood concentration higher than JWH-018 (mean increase) ([3]; 20 min after exposure) [%] | Degradation (auto-sampler stability) [4] | JWH-073 brain concentration higher than JWH-018 (mean increase) ([5]; 20 min after exposure) [%] | Brain concentration (range) ([5]; 20 h post exposure, five mice) | Detection in blood samples ([3]; 20 min and 20 h after exposure) | Detection in brain samples ([5]; 20 min and 20 h after exposure) |
| --- | --- | --- | --- | --- | --- | --- | --- | --- |
| CCCCCn1cc(C(=O)c2cccc3ccccc23)c2ccccc21 [JWH-018, Naphthalen-1-yl-(1-pentylindol-3-yl)methanone] | undetectable | 1.84 |  |  |  |  |  |  |
| CCCCn1cc(C(=O)c2cccc3ccccc23)c2ccccc21 [JWH-073, Naphthalen-1-yl-(1-butylindol-3-yl)methanone] |  | 0.42 | 53 | approximately 20% | 84 | not detected |  |  |
| CCCCCn1cc(C(=O)c2ccc(Cl)c3ccccc23)c2ccccc21 [JWH-398, 4-chloronaphthalen-1-yl-(1-penty-lindolin-3-yl)methanone] |  |  |  |  |  |  | not detected | not detected |
